# Laboratory results as given in patent US9346854B2, “Anti-inflammatory peptides and use thereof” (Yeda Research and Development Co. Ltd., priority 2012, dated 2016).
# Entries after “also recorded” stand apart in the source; their conditions may differ. Where two headings read alike, the source gives them in different places. No end group written: not given here.
# What was measured:
# RAW264.7 macrophages = type: cell-based, murine; conditions: for LC50 (cytotoxicity): toxicity, XTT, 2 hours incubation (method: LC50), read-out: IC50 macrophages RAW264.7; for IC50: 2 h
# Protocol: (§1) All in vitro assays were performed on RAW264.7 murine macrophages (ATCC-TIB71). Cells were grown in DMEM supplemented with 10% FBS, L-glutamine, sodium pyruvate, non-essential amino acids and antibiotics (Biological Industries, Beit Haemek, Israel). Incubator was set on 37° C. with a humidified atmosphere containing 5% CO2.
# 1×10^4 cells per well were grown overnight on a 96-well plate. The following day, the media were replaced with 90 μl fresh culture medium and 10 μl solution buffer containing different concentrations of the different peptides. Peptide concentrations ranged from 0.78-100 μM. The cells were then incubated for 2 hours before adding to each well 50 μl of 2,3-bis-2H-tetrazolium-5-carboxanilide inner salt (XTT) reaction solution (Biological Industries). Viability was determined as described previously (Makovitzki et al. Cancer Res 69, 3458-63, 2009; Papo et al. 2006). The LC50 (the concentration at which 50% of the cells die) for each peptide was obtained from the dose-dependent cell viability curves.
# E. coli 25922 = type: cell-based
# Protocol: (§2) The antibacterial activity of the peptides was examined in sterile 96-well plates (Nunc F96 microtiter plates) in a final volume of 100 μl, as follows. Aliquots (50 μl) of a suspension containing bacteria at a concentration of 10^6 colony-forming units/ml in culture medium (LB medium) were added to 50 μl of peptide serially diluted in culture medium (100 μM-0.78 μM). Inhibition of growth was determined by eye after an incubation of 18-20 h at 37° C. Antibacterial activities were expressed as the minimal inhibitory concentration, the concentration at which 100% inhibition of growth was observed after 18-20 h of incubation. In these the effect of the peptides on E. coli (ATCC:25922) and S. aureus (ATCC:6538P) was tested.
# S. aureus 6538P = type: cell-based
# Protocol: as §2
# RBL-2H3 cells = experiment: IgE and DNP-BSA mediated degranulation (β-hexoseaminidase release); type: cell-based, rat; conditions: for Inhibition of Degranulation (%): peptide concentration 20 μM, derived from FIG. 9A
# Protocol: In order to study the specific effect of the peptides of the invention on direct IgE mediated degranulation, the rat basophilic cell line (RBL-2H3) was used. This cell line expresses high levels of surface IgE receptor that binds IgE with high affinity (FcεRI). Upon adding an allergen (IgE antigen) there is a cross-linking of adjacent FcεRs that results in degranulation and release of histamine. Degranulation was measured as release of intracellular β-hexoseaminidase (Nunomura et al., Int Immunol 17, 685-94, 2005).
# In this assay system, RBL cells were incubated with the DNP-specific murine monoclonal IgE SPE7 (Eshhar et al., J Immunol 124:775, 1980) for 2.5 hours. The cells were washed and centrifuged and then further incubated with the DNP-BSA antigen that crossed-link the FcεRI bound IgE. Next, extracellular hexoseaminidase levels were evaluated by their ability to hydrolyze the 4-nitrophenyl-N-acetyl-β-D-glucosaminide substrate which results in the accumulation of a colored product. The tested peptides (see Table 5) were added at different concentrations and stages of the assay and tested for their ability to inhibit this reaction.
# In the first set of experiments, RBLs were incubated with different concentrations of the (AL)6AK2 peptide or irrelevant control peptide (alpha subunit peptide) in the presence of IgE. Following incubation, the cells were washed and DNP10-BSA with peptide was added to crosslink adjacent FcεRI (FIG. 6). Following incubation, the cells were washed and suspended in the degranulation medium for either 30 (FIG. 6A) or 60 min. (FIG. 6B).
# Balb/c mice = experiment: Antigen (OVA) induced anaphylactic shock; type: in vivo; conditions: for Survival of anaphylactic shock (%): i.v. 10-15 mg/kg, 30-45 minutes prior to soluble OVA challenge
# Protocol: The inhibitory capacity of the Kn(AL)nKn peptides was tested in the most rigorous manner for inhibition of otherwise fatal anaphylaxis. In this model, Balb/c mice were immunized by an i.p. injection of 100 μg OVA in 5 mg Alum and 1.5 μg pertusis, a protocol that favors IgE-type of response. Three weeks later the immunized mice received an i.v. injection of soluble OVA (3.5-5 μg), resulting in a rapid and aggressive anaphylactic shock. In this specific model, the immunized mice die within 10-20 minutes after the systemic (i.v.) OVA injection.
# To test the ability of the peptides of the invention to inhibit anaphylactic shock formation, an i.v. injection of the K2(AL)8K2 peptide at 10-15 mg/kg was administered, 30-45 minutes prior to the soluble OVA challenge. Strikingly, this single injection rescued 87% of the sensitized mice (Table 7). […] In several mice that were protected by the K2(AL)8K2 peptide, the protection lasted for at least 2 days. Peptide treated mice died of anaphylactic shock only after systemic injection of a very high dose of OVA. Still, the exact conditions for optimum protective activity need to be validated.
# TLR4 activation by LPS = experiment: TNFα secretion by RAW264.7 macrophages stimulated with LPS; type: cell-based, murine; conditions: for inhibition of LPS activation of macrophages (TNFα secretion), in words: LPS 10 ng/ml, peptide 20 μM (FIGS. 1A, 2)
# Protocol: as §1
# (§3) 2×10^5 cells per well were cultured overnight in a 96-wells plate. The following day, the media were replaced by fresh DMEM, including all supplements. Peptides were dissolved in DMSO and added to the cells in different concentrations. Final concentration of DMSO was 1% for all groups. Cells were incubated with the peptide for 2 hours, then LPS (TLR4 activator) or LTA (TLR2 activator) was added to the cells at 10 ng/ml or 500 ng/ml, respectively. The cells were further incubated for 5 hrs at 37° C., after which samples of the media from each treatment were collected and stored at −20° C. TNFα concentration in each sample was evaluated using a mouse TNFα enzyme-linked immunosorbent assay kit (Biosource™ ELISA, Invitorgen), according to the manufacturer's protocol. All experiments were done in triplicates.
# TLR2 activation by LTA = experiment: TNFα secretion by RAW264.7 macrophages stimulated with LTA; type: cell-based, murine; conditions: LTA 500 ng/ml; peptide 20 μM (FIG. 1A)
# Protocol: as §1, §3
# RBL cells = type: cell-based, rat
# [1] = LPS binding assay with NBD-labeled peptides; conditions: NBD-labeled peptide affinity to LPS
# Protocol: NBD-labeled peptides (50 μl, 2 μM, PBS^−/− 2% DMSO) were added to different concentrations of LPS (50 μl PBS^−/−) in a opaque black 96 well plate. After 10 minutes of incubation at room temperature, the fluorescence was measured using an excitation of 467 nm and emission of 530 nm. The data were plotted and Kd and Bmax values obtained using NLLSQ analysis.
# C57BL mice = experiment: In vivo toxicity in mice; conditions: 100 mg/kg i.p.
# Protocol: Toxicity was tested by intraperitoneal injection of K2(AL)8K2 (100 mg/kg in 400 μl saline) in female C57B1 mice (n=2). Mice were continuously observed for 1 hour immediately following injection and once per day for 7 days. To examine the effect of our peptides on acute septic shock driven by LPS hyperactivation of TLR4 we have used murine models as described before (Zheng et al. Int Immunopharmacol 10, 1209-19, 2010; Arima et al, 2005). Briefly, 12 weeks old C57 Black female mice were treated with 100 ng of LPS injected IP in a saline solution (200 μl, pH 6.5) containing 200 mg/ml of D-galactosamine (Calbiochem). Treated mice received one IP injection of 10 mg/kg peptide dissolved in saline (200 μl) following the LPS injection. In the second model heat-killed bacteria were used to induce a lethal septic shock. E. coli cells were grown to a mid log phase (OD=0.5) at 37° C., cooled on ice, and centrifuged at 3500 rpm for 10 minutes at 4° C. The cells were re-suspended in saline for a concentration of 2×10^9 cells in 200 μl and heated at 95° C. for 30 minutes. Each animal received an IP injection of 2×10^9 cells in 200 μl saline followed by injection of 10 mg/kg peptide dissolved in saline (200 μl). Animals were monitored for survival and for signs of sepsis for the next 14 days after LPS injection. Peptides used as the acetic acid salts for in vivo experiments. […]
# [2] = 100% inhibition of growth after 18-20 h
Substance,IC50 (RAW264.7 macrophages),MIC E. coli 25922 (E. coli 25922; 25922),MIC S. aureus 6538P (S. aureus 6538P; 6538P),Kd [1],also measured
ALALALALALALALK-NH2 [(AL)7K],–,–,–,–,LC50 (cytotoxicity) (RAW264.7 macrophages): > 100 µM; MIC E. coli 25922 (E. coli 25922; [2]): >100 µM; MIC S. aureus 6538P (S. aureus 6538P; [2]): >100 µM
LALALALALALALALALALK-NH2 [L(AL)9K],–,–,–,–,"LC50 (cytotoxicity) (RAW264.7 macrophages): > 100 µM; MIC E. coli 25922 (E. coli 25922; [2]): >100 µM; MIC S. aureus 6538P (S. aureus 6538P; [2]): >100 µM; inhibition of IgE/DNP-BSA degranulation, in words (RBL-2H3 cells): no inhibition; Inhibition of Degranulation (%) (RBL-2H3 cells): 0%; Survival of anaphylactic shock (%) (Balb/c mice): 0%; protection from anaphylactic shock, in words (Balb/c mice; mouse, in vivo): failed also to give any protection"
KKAVAVAVAVAVAVAVAVKK-NH2 [K2(AV)8K2],90 µM,>100 µM,>100 µM,–,"inhibition of LPS activation of macrophages (TNFα secretion), in words (TLR4 activation by LPS): medium inhibition; also recorded: lower activity; inhibition of LTA activation of macrophages (TNFα secretion), in words (TLR2 activation by LTA): good inhibition"
"ALALALALALALAKK-NH2 [(AL)6AK2, ALALALALALALAKK]",> 100 µM,>100 µM,>100 µM,–,killing or growth inhibition of RBL cells (RBL cells): did not kill or inhibited the growth
ALALALALALALALALALKK [4D-(AL)9K2],–,–,–,–,LC50 (cytotoxicity) (RAW264.7 macrophages): 50 µM; MIC E. coli 25922 (E. coli 25922; [2]): >100 µM; MIC S. aureus 6538P (S. aureus 6538P; [2]): >100 µM
KKALALALALALALALALALALAKK [K2(AL)10AK2],–,–,–,–,Survival of anaphylactic shock (%) (Balb/c mice): 50%
ALALALALALALALALALKK-NH2 [(AL)9K2],> 100 µM,>100 µM,>100 µM,4.4 µM,Inhibition of Degranulation (%) (RBL-2H3 cells): 30%
KALALALALALALALALALK-NH2 [K(AL)9K],> 100 µM,>100 µM,>100 µM,–,–
KALALALKALALKALALALK-NH2 [K(AL)3K(AL)2K(AL)3K],25 µM,25 µM,12.5 µM,9.6 µM,"inhibition of LPS activation of macrophages (TNFα secretion), in words (TLR4 activation by LPS): highly active"
KALALALALALALAK-NH2 [K(AL)6AK],> 100 µM,>100 µM,>100 µM,–,–
KKALALALALALALALALKK [4D-K2(AL)8K2],–,–,–,15.6 µM,LC50 (cytotoxicity) (RAW264.7 macrophages): > 100 µM; MIC E. coli 25922 (E. coli 25922; [2]): 100 µM; MIC S. aureus 6538P (S. aureus 6538P; [2]): 100 µM
"KKALALALALALAKK-NH2 [K2(AL)5AK2, KKALALALALALAKK]",> 100 µM,>100 µM,>100 µM,2.7 µM,"inhibition of LPS activation of macrophages (TNFα secretion), in words (TLR4 activation by LPS): lower activity; inhibition (LPS neutralization) (TLR4 activation by LPS; peptide 20 μM): 50%"
"KKALALALKK-NH2 [K2(AL)3K2, KKALALALKK]",> 100 µM,>100 µM,>100 µM,10 to 15 µM,"inhibition of LPS activation of macrophages (TNFα secretion), in words (TLR4 activation by LPS): inactive"
KKALALALALALALALALKK-NH2 [K2(AL)8K2],> 100 µM,>100 µM,>100 µM,–,adverse effects in vivo (C57BL mice): not adversely affected
